From patent publication US7608642B2, “Wound and skin care compositions” (Kimberly-Clark Worldwide, Inc., priority 2002, dated 2009)
“And” between values parts separate entries of the source, which are not always exact repeats. Identical values can stand only once. “Also recorded” adds a separate entry of the source.

Tests used:
[1] = tested on: collagen production in the human skin fibroblast cell line; experiment: Collagen production in human skin fibroblasts (Takara EIA kit MK101, absorbance 450 nm); type: cell-based; settings: for Mean optical density (OD) at 450 nm, collagen production / Median optical density (OD) at 450 nm, collagen production: 48 hours, n=2
Procedure: The cells were first grown in a 96-well assay system using Dulbecco's Modified Eagle's Medium (DMEM) with 10% fetal bovine serum (FBS) both purchased from Sigma Chemical Co, St. Louis, Mo. Serum-free DMEM was used as a control.
The assay was done by using the recommended 20 ul of the supernatant from each well of the 96-well plate. Standard buffer and stop solutions were freshly prepared before running the assay. 100 ul of antibody-POD conjugate solution (supplied with the kit) was added into the wells using pre antibody coated 96 well plate (supplied with the kit). 20 ul of standard and test solutions (from the other 96-well plate containing fibroblasts) were added to appropriate wells. Plate was mixed gently, sealed and incubated for three hrs. at 37° C.
After incubation each well was washed carefully four times with PBS buffer (400 ul). All the wells were completely emptied at the end of washing from any liquid.
100 ul of substrate solution (hydrogen peroxide and tetramethylbenzidine in a buffer solution, supplied with the kit) was added to each well and the plate was incubated for 15 minutes. At this point 100 ul of stop solution (freshly prepared 1N H2SO4) was added to each well in the same order as substrate. The plate was gently mixed and absorbance was read at 450 nm.

[2] = tested on: fibronectin production in the human skin fibroblast cell line; experiment: Fibronectin production in human skin fibroblasts (Takara EIA kit MK115, absorbance 450 nm); type: cell-based; settings: for Mean optical density (OD) at 450 nm, fibronectin production / Median optical density (OD) at 450 nm, fibronectin production: 48 hours, n=2
Procedure: The cells were first grown in a 96-well assay system using Dulbecco's Modified Eagle's Medium (DMEM) with 10% fetal bovine serum (FBS) both purchased from Sigma Chemical Co, St. Louis, Mo. Serum-free DMEM was used as a control. […] The fibronectin assay was performed using the recommended 100 μl of the supernatant from each well of the 96-well plate. Standard buffer and stop solutions were freshly prepared before running the assay. A pre-antibody-coated 96 well plate (provided with the kit) was used to transfer the test samples and control. The plate was mixed, sealed and incubated for 1 hour at 37° C. All the wells were washed after removing sample solutions, 3 times (300 μl) with washing buffer. 100 ul of antibody-POD conjugate solution was added into the wells. Plate was mixed, sealed and incubated for one hour at 37° C. Solutions were removed and the wells were washed 3 times with washing buffer. All the wells were completely emptied at the end of washing from any liquid. 100 μl of substrate solution (hydrogen peroxide and tetramethylbenzidine in a buffered solution) was added to each well and the plate was incubated at room temperature for 15 minutes. 100 μl of stop solution (freshly prepared 1N H2SO4) was added to each well in the same order as substrate. The plate was gently mixed and absorbance was read at 450 nm.

Swiss Albino mice = experiment: Wound healing, full thickness skin wounds (3 mm biopsy punch) in mice; type: in vivo, mouse; settings: topical 5 μl of 0.2% solution, 5 doses Day 0-2, vs control (WFI)
Procedure: Twenty, 12-week old Swiss Albino mice were anesthetized with a ketamine/acepromazine cocktail and subjected to four full thickness skin wounds on the dorsolateral surface. […] Jasmonic acid (100 mg) was dissolved in 2 ml ethanol. 200 μl of the resulting solution was then added to 4.8 ml of WFI. Four wounds were made on either side of the spinal column using a 3 mm biopsy punch. To make the wounds, the skin was first tented and the punch was driven through the tented skin to generate both wounds with a single stroke. The upper left quadrant wound site of the animal was assigned to receive the control solution (WFI). […] The wound sites were dosed 5 times (twice on Day 0, Day 1, and once on Day 2). All wounds were treated with 5 μl of test or control solutions. Wounds were allowed to absorb the solutions for 5 minutes before returning the animals to their cages for recovery. All the animals were housed singly. The in-life phase for the animals is 5 days. Each day the wounds on the mice were traced onto glass slides and measured using calipers accurate to the nearest 0.1 mm. Photographs of the wounds were also taken daily for the duration of the study to measure wound size. Means and the standard deviations of the wound diameters for each day were calculated for the healing profile. The effects of the test substances on wound healing were compared to the effects of the control (WFI).

[3] = tested on: healthy female volunteers; experiment: Dansyl chloride cell renewal study (stratum corneum renewal time); type: in vivo, human; settings: topical twice daily for two weeks
Excerpt: The stratum corneum renewal time is the time taken for the whole thickness of the stratum corneum to be exfoliated and replaced by new cells from the dividing epidermis. This renewal time is a fundamental indicator of skin health. […] See Jansen L H, Hojyo-Tomoko M T, Kligman A M., Improved fluorescence staining technique for estimating turnover of the human stratum corneum, Br J Dermatol., 90, 9-12, 1974; Ridge B D, Batt M D, Palmer H E, Jarrett A, The dansyl chloride technique for stratum corneum renewal as an indicator of changes in epidermal mitotic activity following topical treatment., Br J Dermatol., 118, 167-74, 1988; Grove G L, Kligman A M, Age-associated changes in human epidermal cell renewal., J Geron., 38, 137-142, 1983. The time required for the dye to disappear is therefore an indication of the turnover time of the stratum corneum. Therefore, any differences in the time required for the dye to disappear from treated and non-treated sites can be considered to be an expression of that product's ability to enhance epidermal renewal.
A dansyl chloride cell renewal study was conducted in healthy female volunteers ranging from 43-64 years of age. The study consisted of a two-week treatment period during which time the products were applied topically twice daily, including on weekend days, to the test sites. The area of application was designated, approximately 5 cm×10 cm on the upper inner arm. The other arm served as a control with no product application. […] Eight females received jasmonic acid and seven females received gibberellic acid.
The time required for a marker dye to disappear was used as the measure of cell renewal rate.

[4] = tested on: human skin keratinocyte cell line (normal human epidermal keratinocytes, neonatal); experiment: Proliferation of human skin keratinocytes (Cell Titer 96, absorbance 490 nm); type: cell-based; settings: for Cell proliferating activity on human keratinocytes (in words): 1×10^−4 M to 1×10^−6 M vs control; for Mean optical density (OD) at 490 nm, cell proliferation / Median optical density (OD) at 490 nm, cell proliferation: 48 hours, KBM, n=5
Procedure: In addition, 100 μl of vehicle KBM was added to 5 wells as control. […] The spectrophotometric absorbance of each well was read at 490 nm.

[5] = 1×10^−4 M to 1×10^−6 M vs control

## C=C1C[C@]23C[C@@]1(O)CC[C@H]2[C@@]12C=C[C@H](O)[C@@](C)(C(=O)O1)[C@H]2[C@@H]3C(=O)O [gibberellic acid]
[1]; [5]
  Stimulation of collagen production (in words): more profound, particularly at lower, rather than higher, concentrations; also recorded: lower concentrations of gibberellic acid had the most profound effect
[1]; 1×10^−4 M
  Mean optical density (OD) at 450 nm, collagen production: 0.7780
  Median optical density (OD) at 450 nm, collagen production: 0.7780
[1]; 1×10^−5 M
  Mean optical density (OD) at 450 nm, collagen production: 0.8365
  Median optical density (OD) at 450 nm, collagen production: 0.8365
[1]; 1×10^−6 M
  Mean optical density (OD) at 450 nm, collagen production: 0.8630
  Median optical density (OD) at 450 nm, collagen production: 0.8630
[2]; [5]
  Stimulation of fibronectin production (in words): effective for stimulating fibronectin production in human fibroblasts; also recorded: Both low and high concentrations of gibberellic acid stimulated fibronectin production
[2]; 1×10^−4 M
  Mean optical density (OD) at 450 nm, fibronectin production: 0.2150
  Median optical density (OD) at 450 nm, fibronectin production: 0.2150
[2]; 1×10^−5 M
  Mean optical density (OD) at 450 nm, fibronectin production: 0.2090
  Median optical density (OD) at 450 nm, fibronectin production: 0.2090
[2]; 1×10^−6 M
  Mean optical density (OD) at 450 nm, fibronectin production: 0.2225
  Median optical density (OD) at 450 nm, fibronectin production: 0.2225
Swiss Albino mice
  Effect on wound closure / wound healing (in words): accelerated wound healing during the 24 to 48 hrs following treatment
[3]; 0.25% composition
  Skin irritation or redness: no visible sign of any skin irritation or redness
[3]; 0.25% in hyaluronic acid (0.5% aqueous solution), upper inner arm, individual patients, listed as GA
  Time for cell renewal, treated skin (RENEWAL): 21 Days and 14 Days (2×) and 12 Days (2×) and 19 Days and 17 Days
[4]
  Cell proliferating activity on human keratinocytes (in words): all concentrations of gibberellic acid had a significant effect on cell growth
[4]; listed as giberrellic acid
  Cell proliferating activity on human keratinocytes (in words): strong cell proliferating activity at all concentrations
[4]; 1×10^−4 M
  Mean optical density (OD) at 490 nm, cell proliferation: 0.6512
  Median optical density (OD) at 490 nm, cell proliferation: 0.6510
[4]; 1×10^−5 M
  Mean optical density (OD) at 490 nm, cell proliferation: 0.8184
  Median optical density (OD) at 490 nm, cell proliferation: 0.8210
[4]; 1×10^−6 M
  Mean optical density (OD) at 490 nm, cell proliferation: 0.7854
  Median optical density (OD) at 490 nm, cell proliferation: 0.7900
